Data reported in patent publication US10947252B2, “Inhibitors of KEAP1-Nrf2 protein-protein interaction” (Janssen Pharmaceutica NV, priority 2018, dated 2021).

Tests used:
[1] = biological target: Kelch domain of human KEAP1 (321-624 aa) (Homo sapiens (Human), UniProt Q14145); assay: KEAP1 KELCH ThermoFluor binding assay; details: KEAP Kelch […], 1,8-ANS, pH 7.0, average of results obtained, read-out: Tf Kd;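 further: Ligand-induced melting temperature shift of E. coli-expressed KEAP1 Kelch protein, Kd estimated from concentration-response curves of ΔTm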
[2] = tested on: Glo-Response ARE-luc2P HEK293 cell line; assay: ARE luciferase reporter cell-based assay; details: Homo sapiens, HEK293, 24 h, average of results obtained;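 further: luciferase signal tracks Nrf2 activation of the ARE once compounds disrupt KEAP1-Nrf2 binding, read with One-Glo reagent, DMSO serving as low control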

Chain of Kelch domain of human KEAP1 (321-624 aa) (Q14145 321-624): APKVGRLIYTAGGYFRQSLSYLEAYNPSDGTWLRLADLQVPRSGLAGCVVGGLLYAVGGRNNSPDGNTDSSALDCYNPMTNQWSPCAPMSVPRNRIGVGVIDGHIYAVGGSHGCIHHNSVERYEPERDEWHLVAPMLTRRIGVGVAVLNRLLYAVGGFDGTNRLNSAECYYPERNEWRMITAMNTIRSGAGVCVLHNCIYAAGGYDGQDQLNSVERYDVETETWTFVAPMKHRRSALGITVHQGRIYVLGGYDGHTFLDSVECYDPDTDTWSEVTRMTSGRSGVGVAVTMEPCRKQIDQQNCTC

Kd [1] [nM]	Structure (SMILES)	EC50 [2] [nM]
< 1	Cc1ccc([C@H](c2ccn3c(C4CC4)nnc3c2C)C(C)(C)C(=O)O)cc1CN1CC2(COC2)Oc2ncccc2S1(=O)=O (single isomer, unassigned) [Example 620, (*R)-3-(3-Cyclopropyl-8-methyl-[1,2,4]triazolo[4,3-a]pyridin-7-yl)-3-(3-((1′,1′-dioxidospiro[oxetane-3,4′-pyrido[2,3-b][1,4,5]oxathiazepin]-2′(3′H)-yl)methyl)-4-methylphenyl)-2,2-dimethylpropanoic Acid]	7.87
< 1	Cc1cnc2c(c1)S(=O)(=O)N(Cc1cc(C(c3ccn4c(C(F)F)nnc4c3C)C(C)(C)C(=O)O)ccc1C)CC1(CCOCC1)O2 (racemic) [Example 575, (R/S)-3-(3-(Difluoromethyl)-8-methyl-[1,2,4]triazolo[4,3-a]pyridin-7-yl)-2,2-dimethyl-3-(4-methyl-3-((8′-methyl-1′,1′-dioxido-2,3,5,6-tetrahydrospiro[pyran-4,4′-pyrido[2,3-b][1,4,5]oxathiazepin]-2′(3′H)-yl)methyl)phenyl)propanoic Acid]	6.62
< 1	COc1ccc2c(n1)OC1(CCOCC1)CN(Cc1cc([C@@H](c3ccn4c(C(F)F)nnc4c3C)C(C)(C)C(=O)O)ccc1C)S2(=O)=O (single isomer, unassigned) [Example 582, (*S)-3-(3-(Difluoromethyl)-8-methyl-[1,2,4]triazolo[4,3-a]pyridin-7-yl)-3-(3-((7′-methoxy-1′,1′-dioxido-2,3,5,6-tetrahydrospiro[pyran-4,4′-pyrido[2,3-b][1,4,5]oxathiazepin]-2′(3′H)-yl)methyl)-4-methylphenyl)-2,2-dimethylpropanoic Acid]	1.43
1.02	Cc1ccc(C(CC(=O)O)c2ccn3c(C(F)F)nnc3c2C)cc1CN1C[C@@H]2COCCN2c2ncccc2S1(=O)=O (stereo in doubt) [Example 457, 3-(3-(Difluoromethyl)-8-methyl-[1,2,4]triazolo[4,3-a]pyridin-7-yl)-3-(3-(((*R)-5,5-dioxido-7a,8,10,11-tetrahydro-[1,4]oxazino[3,4-d]pyrido[2,3-f][1,2,5]thiadiazepin-6(7H)-yl)methyl)-4-methylphenyl)propanoic Acid]	479
< 1	Cc1ccc(C(CC(=O)O)c2ccc3c(nnn3C3CC3)c2C)cc1CN1C[C@]2(C)CCCN2c2ncccc2S1(=O)=O (mixture of isomers) [Example 218, (R/S)-3-(1-Cyclopropyl-4-methyl-1H-benzo[d][1,2,3]triazol-5-yl)-3-(4-methyl-3-(((*S)-7a-methyl-5,5-dioxido-7a,8,9,10-tetrahydropyrido[2,3-f]pyrrolo[2,1-d][1,2,5]thiadiazepin-6(7H)-yl)methyl)phenyl)propanoic Acid]	6.6
58	Cc1ccc([C@@H](CC(=O)O)c2ccn3c(C(F)(F)F)nnc3c2C)cc1CN1C[C@@H]2CN(C)CCN2c2ncccc2S1(=O)=O (single isomer, unassigned) [Example 179, (*R)-3-(4-Methyl-3-(((*S)-9-methyl-5,5-dioxido-7,7a,8,9,10,11-hexahydro-6H-pyrazino[2,1-d]pyrido[2,3-f][1,2,5]thiadiazepin-6-yl)methyl)phenyl)-3-(8-methyl-3-(trifluoromethyl)-[1,2,4]triazolo[4,3-a]pyridin-7-yl)propanoic Acid]	2040
< 1	Cc1ccc([C@@H](CC(=O)O)c2ccn3c(C(F)(F)F)nnc3c2C)cc1CN1CC2(COC2)Oc2ccccc2S1(=O)=O (single isomer, unassigned) [Example 288, (*R)-3-(3-((1,1-dioxidospiro[benzo[b][1,4,5]oxathiazepine-4,3′-oxetan]-2(3H)-yl)methyl)-4-methylphenyl)-3-(8-methyl-3-(trifluoromethyl)-[1,2,4]triazolo[4,3-a]pyridin-7-yl)propanoic Acid]	123
< 1	Cc1ccc(C(CC(=O)O)c2ccc3c(nnn3C3CC3)c2C)cc1CN1C[C@@H]2CCCCN2c2ncccc2S1(=O)=O (mixture of isomers) [Example 397, (R/S)-3-(1-Cyclopropyl-4-methyl-1H-benzo[d][1,2,3]triazol-5-yl)-3-(3-(((*S)-5,5-dioxido-7,7a,8,9,10,11-hexahydro-6H-dipyrido[2,1-d:2′,3′-f][1,2,5]thiadiazepin-6-yl)methyl)-4-methylphenyl)propanoic Acid]	11
19	Cc1ccc(C(CC(=O)O)c2ccc3c(nnn3C3CC3)c2C)cc1CN1C[C@@]2(C)CCCN2c2ncccc2S1(=O)=O (mixture of isomers) [Example 221, (R/S)-3-(1-Cyclopropyl-4-methyl-1H-benzo[d][1,2,3]triazol-5-yl)-3-(4-methyl-3-(((*R)-7a-methyl-5,5-dioxido-7a,8,9,10-tetrahydropyrido[2,3-f]pyrrolo[2,1-d][1,2,5]thiadiazepin-6(7H)-yl)methyl)phenyl)propanoic Acid]	580
< 1	Cc1ccc([C@@H](CC(=O)O)c2ccn3c(C(F)(F)F)nnc3c2C)nc1CN1CC2(COC2)Oc2ccccc2S1(=O)=O (single isomer, unassigned) [Example 485, (*S)-3-(6-((1,1-dioxidospiro[benzo[b][1,4,5]oxathiazepine-4,3′-oxetan]-2(3H)-yl)methyl)-5-methylpyridin-2-yl)-3-(8-methyl-3-(trifluoromethyl)-[1,2,4]triazolo[4,3-a]pyridin-7-yl)propanoic Acid]	156
2400	Cc1ccc([C@H](c2ccn3c(C(F)(F)F)nnc3c2C)C(C)(C)C(=O)O)cc1CN1CC2(CCOCC2)Oc2ncccc2S1(=O)=O (single isomer, unassigned) [Example 410, (*R)-3-(3-((1′,1′-dioxido-2,3,5,6-tetrahydrospiro[pyran-4,4′-pyrido[2,3-b][1,4,5]oxathiazepin]-2′(3′H)-yl)methyl)-4-methylphenyl)-2,2-dimethyl-3-(8-methyl-3-(trifluoromethyl)-[1,2,4]triazolo[4,3-a]pyridin-7-yl)propanoic Acid]	1220
1.6	Cc1ccc(C(CC(=O)O)c2ccn3c(C(F)(F)F)nnc3c2C)cc1CN1CC2(CC2)N(C)c2ncccc2S1(=O)=O (racemic) [Example 183, (R/S)-3-(4-Methyl-3-((5′-methyl-1′,1′-dioxido-5′H-spiro[cyclopropane-1,4′-pyrido[2,3-f][1,2,5]thiadiazepin]-2′(3′H)-yl)methyl)phenyl)-3-(8-methyl-3-(trifluoromethyl)-[1,2,4]triazolo[4,3-a]pyridin-7-yl)propanoic Acid]	370
4460	Cc1ccc([C@@H](c2ccn3c(C(F)F)nnc3c2C)C(C)(C)C(=O)O)nc1CN1CC2(CC2)Oc2nc(OCCN3CCCC3)c(C)cc2S1(=O)=O (single isomer, unassigned) [Example 358, (*S)-3-(3-(Difluoromethyl)-8-methyl-[1,2,4]triazolo[4,3-a]pyridin-7-yl)-2,2-dimethyl-3-(5-methyl-6-((8′-methyl-1′,1′-dioxido-7′-(2-(pyrrolidin-1-yl)ethoxy)spiro[cyclopropane-1,4′-pyrido[2,3-b][1,4,5]oxathiazepin]-2′(3′H)-yl)methyl)pyridin-2-yl)propanoic Acid]	23.3
< 1	Cc1ccc([C@@H](CC(=O)O)c2ccn3c(C(F)(F)F)nnc3c2C)nc1CN1C[C@@H]2CCCCN2c2ncccc2S1(=O)=O (single isomer, unassigned) [Example 479, (*S)-3-(6-(((*S)-5,5-Dioxido-7,7a,8,9,10,11-hexahydro-6H-dipyrido[2,1-d:2′,3′-f][1,2,5]thiadiazepin-6-yl)methyl)-5-methylpyridin-2-yl)-3-(8-methyl-3-(trifluoromethyl)-[1,2,4]triazolo[4,3-a]pyridin-7-yl)propanoic Acid]	48.8
< 1	Cc1ccc([C@H](CC(=O)O)c2ccn3c(C(F)F)nnc3c2C)cc1CN1C[C@H]2CCCN2c2ncc(C#N)cc2S1(=O)=O (single isomer, unassigned) [Example 540, (*S)-3-(3-(((*R)-3-Cyano-5,5-dioxido-7a,8,9,10-tetrahydropyrido[2,3-f]pyrrolo[2,1-d][1,2,5]thiadiazepin-6(7H)-yl)methyl)-4-methylphenyl)-3-(3-(difluoromethyl)-8-methyl-[1,2,4]triazolo[4,3-a]pyridin-7-yl)propanoic Acid]	26.7
586	Cc1ccc([C@H](c2ccn3c(C(F)(F)F)nnc3c2C)C(C)(C)C(=O)O)cc1CN1C[C@H]2CCCCN2c2ncc(C#N)cc2S1(=O)=O (single isomer, unassigned) [Example 423, (*R)-3-(3-(((*R)-3-cyano-5,5-dioxido-7,7a,8,9,10,11-hexahydro-6H-dipyrido[2,1-d:2′,3′-f][1,2,5]thiadiazepin-6-yl)methyl)-4-methylphenyl)-2,2-dimethyl-3-(8-methyl-3-(trifluoromethyl)-[1,2,4]triazolo[4,3-a]pyridin-7-yl)propanoic Acid]	409
< 1	Cc1ccc([C@@H](c2ccn3c(C4CC4)nnc3c2C)C(C)(C)C(=O)O)cc1CN1CC2(CCOCC2)Oc2ncccc2S1(=O)=O (single isomer, unassigned) [Example 41, (*S)-3-(3-Cyclopropyl-8-methyl-[1,2,4]triazolo[4,3-a]pyridin-7-yl)-3-(3-((1′,1′-dioxido-2,3,5,6-tetrahydrospiro[pyran-4,4′-pyrido[2,3-b][1,4,5]oxathiazepin]-2′(3′H)-yl)methyl)-4-methylphenyl)-2,2-dimethylpropanoic Acid]	46
< 1	Cc1ccc([C@H](CC(=O)O)c2ccc3c(nnn3C3CC3)c2C)cc1CN1CC2(COC2)Oc2ccccc2S1(=O)=O (single isomer, unassigned) [Example 215, (*S)-3-(1-Cyclopropyl-4-methyl-1H-benzo[d][1,2,3]triazol-5-yl)-3-(3-((1,1-dioxidospiro[benzo[b][1,4,5]oxathiazepine-4,3′-oxetan]-2(3H)-yl)methyl)-4-methylphenyl)propanoic Acid]	3.3
